Reference: PubChem BioAssay (NCI)
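Exposure lasted 48 hours, with cells grown in 96-well plates and compounds tested at five concentrations. GI50 = concentration required for 50% inhibition of growth. The concentration for full growth arrest is given as TGI.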

Tests used:
Assay in all cases: NCI tumour cell line growth inhibition, 48 h
786-0 renal = system: 786-0 renal
A498 renal = system: A498 renal
A549 NSCLC = system: A549 NSCLC
ACHN renal = system: ACHN renal
BT-549 breast = system: BT-549 breast
CAKI-1 renal = system: CAKI-1 renal
CCRF-CEM leukemia = system: CCRF-CEM leukemia
COLO 205 colon = system: COLO 205 colon
DU-145 prostate = system: DU-145 prostate
EKVX NSCLC = system: EKVX NSCLC
HCC-2998 colon = system: HCC-2998 colon
HCT-116 colon = system: HCT-116 colon
HCT-15 colon = system: HCT-15 colon
HL-60(TB) leukemia = system: HL-60(TB) leukemia
HOP-62 NSCLC = system: HOP-62 NSCLC
HOP-92 NSCLC = system: HOP-92 NSCLC
HS 578T breast = system: HS 578T breast
HT29 colon = system: HT29 colon
IGROV1 ovarian = system: IGROV1 ovarian
K-562 leukemia = system: K-562 leukemia
KM12 colon = system: KM12 colon
LOX IMVI melanoma = system: LOX IMVI melanoma
M14 melanoma = system: M14 melanoma
MALME-3M melanoma = system: MALME-3M melanoma
MCF7 breast = system: MCF7 breast
MDA-MB-231 breast = system: MDA-MB-231 breast
MDA-MB-435 = system: MDA-MB-435
MOLT-4 leukemia = system: MOLT-4 leukemia
NCI-H226 lung = system: NCI-H226 lung
NCI-H23 lung = system: NCI-H23 lung
NCI-H460 lung = system: NCI-H460 lung
NCI-H522 lung = system: NCI-H522 lung
NCI/ADR-RES ovarian = system: NCI/ADR-RES ovarian
OVCAR-3 ovarian = system: OVCAR-3 ovarian
OVCAR-4 ovarian = system: OVCAR-4 ovarian
OVCAR-5 ovarian = system: OVCAR-5 ovarian
OVCAR-8 ovarian = system: OVCAR-8 ovarian
PC-3 prostate = system: PC-3 prostate
RPMI-8226 leukemia = system: RPMI-8226 leukemia
RXF 393 renal = system: RXF 393 renal
SF-268 CNS = system: SF-268 CNS
SF-295 CNS = system: SF-295 CNS
SF-539 CNS = system: SF-539 CNS
SK-MEL-2 melanoma = system: SK-MEL-2 melanoma
SK-MEL-28 melanoma = system: SK-MEL-28 melanoma
SK-MEL-5 melanoma = system: SK-MEL-5 melanoma
SK-OV-3 ovarian = system: SK-OV-3 ovarian
SN12C renal = system: SN12C renal
SNB-19 CNS = system: SNB-19 CNS
SNB-75 CNS = system: SNB-75 CNS
SR leukemia = system: SR leukemia
SW-620 colon = system: SW-620 colon
T-47D breast = system: T-47D breast
TK-10 renal = system: TK-10 renal
U251 CNS = system: U251 CNS
UACC-257 melanoma = system: UACC-257 melanoma
UACC-62 melanoma = system: UACC-62 melanoma
UO-31 renal = system: UO-31 renal

Q: Which results are given for `CCn1c(-c2nonc2N)nc2c(C#CC(C)(C)O)nc(CN3CCCC3)cc21`?
A: GI50 (786-0 renal): 18.7 µM; TGI (786-0 renal): > 25 µM; GI50 (A498 renal): 1.39 µM; TGI (A498 renal): 14.6 µM; GI50 (A549 NSCLC): > 25 µM; TGI (A549 NSCLC): > 25 µM; GI50 (ACHN renal): > 25 µM; TGI (ACHN renal): > 25 µM; GI50 (BT-549 breast): 18.8 µM; TGI (BT-549 breast): > 25 µM; GI50 (CAKI-1 renal): > 25 µM; TGI (CAKI-1 renal): > 25 µM; GI50 (CCRF-CEM leukemia): 20.5 µM; TGI (CCRF-CEM leukemia): > 25 µM; GI50 (COLO 205 colon): > 25 µM; TGI (COLO 205 colon): > 25 µM; GI50 (DU-145 prostate): > 25 µM; TGI (DU-145 prostate): > 25 µM; GI50 (EKVX NSCLC): > 25 µM; TGI (EKVX NSCLC): > 25 µM; GI50 (HCC-2998 colon): > 25 µM; TGI (HCC-2998 colon): > 25 µM; GI50 (HCT-116 colon): > 25 µM; TGI (HCT-116 colon): > 25 µM; GI50 (HCT-15 colon): > 25 µM; TGI (HCT-15 colon): > 25 µM; GI50 (HL-60(TB) leukemia): > 25 µM; TGI (HL-60(TB) leukemia): > 25 µM; GI50 (HOP-62 NSCLC): > 25 µM; TGI (HOP-62 NSCLC): > 25 µM; GI50 (HOP-92 NSCLC): > 25 µM; TGI (HOP-92 NSCLC): > 25 µM; GI50 (HS 578T breast): 7.39 µM; TGI (HS 578T breast): > 25 µM; GI50 (HT29 colon): > 25 µM; TGI (HT29 colon): > 25 µM; GI50 (IGROV1 ovarian): 9.23 µM; TGI (IGROV1 ovarian): > 25 µM; GI50 (K-562 leukemia): > 25 µM; TGI (K-562 leukemia): > 25 µM; GI50 (KM12 colon): > 25 µM; TGI (KM12 colon): > 25 µM; GI50 (LOX IMVI melanoma): > 25 µM; TGI (LOX IMVI melanoma): > 25 µM; GI50 (M14 melanoma): > 25 µM; TGI (M14 melanoma): > 25 µM; GI50 (MALME-3M melanoma): > 25 µM; TGI (MALME-3M melanoma): > 25 µM; GI50 (MCF7 breast): 20 µM; TGI (MCF7 breast): > 25 µM; GI50 (MDA-MB-231 breast): > 25 µM; TGI (MDA-MB-231 breast): > 25 µM; GI50 (MDA-MB-435): > 25 µM; TGI (MDA-MB-435): > 25 µM; GI50 (MOLT-4 leukemia): > 20.4 µM; TGI (MOLT-4 leukemia): > 25 µM; GI50 (NCI-H226 lung): > 25 µM; TGI (NCI-H226 lung): > 25 µM; GI50 (NCI-H23 lung): > 25 µM; TGI (NCI-H23 lung): > 25 µM; GI50 (NCI-H460 lung): > 25 µM; TGI (NCI-H460 lung): > 25 µM; GI50 (NCI-H522 lung): 18.3 µM; TGI (NCI-H522 lung): > 25 µM; GI50 (NCI/ADR-RES ovarian): > 25 µM; TGI (NCI/ADR-RES ovarian): > 25 µM; GI50 (OVCAR-3 ovarian): > 25 µM; TGI (OVCAR-3 ovarian): > 25 µM; GI50 (OVCAR-4 ovarian): > 25 µM; TGI (OVCAR-4 ovarian): > 25 µM; GI50 (OVCAR-5 ovarian): > 25 µM; TGI (OVCAR-5 ovarian): > 25 µM; GI50 (OVCAR-8 ovarian): > 25 µM; TGI (OVCAR-8 ovarian): > 25 µM; GI50 (PC-3 prostate): > 25 µM; TGI (PC-3 prostate): > 25 µM; GI50 (RPMI-8226 leukemia): > 25 µM; TGI (RPMI-8226 leukemia): > 25 µM; GI50 (RXF 393 renal): 6.31 µM; TGI (RXF 393 renal): > 25 µM; GI50 (SF-268 CNS): > 25 µM; TGI (SF-268 CNS): > 25 µM; GI50 (SF-295 CNS): 10.9 µM; TGI (SF-295 CNS): > 25 µM; GI50 (SF-539 CNS): 16.9 µM; TGI (SF-539 CNS): > 25 µM; GI50 (SK-MEL-2 melanoma): > 25 µM; TGI (SK-MEL-2 melanoma): > 25 µM; GI50 (SK-MEL-28 melanoma): > 25 µM; TGI (SK-MEL-28 melanoma): > 25 µM; GI50 (SK-MEL-5 melanoma): > 25 µM; TGI (SK-MEL-5 melanoma): > 25 µM; GI50 (SK-OV-3 ovarian): > 25 µM; TGI (SK-OV-3 ovarian): > 25 µM; GI50 (SN12C renal): > 25 µM; TGI (SN12C renal): > 25 µM; GI50 (SNB-19 CNS): > 25 µM; TGI (SNB-19 CNS): > 25 µM; GI50 (SNB-75 CNS): 8.29 µM; TGI (SNB-75 CNS): > 25 µM; GI50 (SR leukemia): > 25 µM; TGI (SR leukemia): > 25 µM; GI50 (SW-620 colon): > 25 µM; TGI (SW-620 colon): > 25 µM; GI50 (T-47D breast): 6.84 µM; TGI (T-47D breast): > 25 µM; GI50 (TK-10 renal): 17.9 µM; TGI (TK-10 renal): > 25 µM; GI50 (U251 CNS): > 25 µM; TGI (U251 CNS): > 25 µM; GI50 (UACC-257 melanoma): > 25 µM; TGI (UACC-257 melanoma): > 25 µM; GI50 (UACC-62 melanoma): > 25 µM; TGI (UACC-62 melanoma): > 25 µM; GI50 (UO-31 renal): > 25 µM; TGI (UO-31 renal): > 25 µM
